# From PubChem BioAssay AID1745844 (Carcinogenic Potency Database (CPDB), 2022)
# Calls of active or inactive are those of the source. The rule behind the calls is not given here. Numbered stars: 1 amine (or outer) side, 2 acyl side, 3 side chain; on linkers, the order of the positions; unused ones are H or OH. Bridge positions count the residues as written; N and C are the ends. Square brackets hold non-standard residues; d marks the D form. Peptide text beside a SMILES is read from it. I, II: the chains in the order shown. Actinocin(1to9) = Cc1c2oc3c(C)ccc(C(=O)[*:2])c3nc-2c(C(=O)[*:1])c(N)c1=O; NMeV = CN[C@H](C(=O)O)C(C)C; Sar = CNCC(=O)O
# Tested on: rodent lifetime carcinogenesis bioassay, tumor incidence TD50
# Assay: chronic cancer bioassays in animals – CPDB, compiled studies (AID 1745844)
compound,measurement,setting,value
ClC1(Cl)C2(Cl)C3(Cl)C4(Cl)C(Cl)(Cl)C5(Cl)C3(Cl)C1(Cl)C5(Cl)C24Cl (stereo unspecified),TD50,"mouse, strain B6AKF1, females, oral dosing, site: any site (literature study), lesion: several types, types named in the paper, dosed 68 weeks, study length 68 weeks",1.26 mg/kg/day
same,TD50,"mouse, strain B6AKF1, females, oral dosing, site: liver, lesion: hepatoma, dosed 68 weeks, study length 68 weeks",1.1 mg/kg/day
same,TD50,"mouse, strain B6AKF1, males, oral dosing, site: any site (literature study), lesion: several types, types named in the paper, dosed 58 weeks, study length 58 weeks",3.32 mg/kg/day
same,TD50,"mouse, strain B6AKF1, males, oral dosing, site: liver, lesion: hepatoma, dosed 58 weeks, study length 58 weeks",2.13 mg/kg/day
same,TD50,"mouse, strain B6C3F1, females, oral dosing, site: any site (literature study), lesion: several types, types named in the paper, dosed 69 weeks, study length 69 weeks",1.6 mg/kg/day
same,TD50,"mouse, strain B6C3F1, females, oral dosing, site: liver, lesion: hepatoma, dosed 69 weeks, study length 69 weeks",1.6 mg/kg/day
same,TD50,"mouse, strain B6C3F1, males, oral dosing, site: any site (literature study), lesion: several types, types named in the paper, dosed 58 weeks, study length 58 weeks",1.5 mg/kg/day
same,TD50,"mouse, strain B6C3F1, males, oral dosing, site: liver, lesion: hepatoma, dosed 58 weeks, study length 58 weeks",1.83 mg/kg/day
same,TD50,"mouse, strain B6C3F1, males, oral dosing, site: liver, lesion: several types, types named in the paper, dosed 58 weeks, study length 58 weeks",1.5 mg/kg/day
same,TD50,"rat, strain Fischer 344, females, in feed, site: any site (literature study), lesion: several types, types named in the paper, dosed 104 weeks, study length 105 weeks",21.9 mg/kg/day
same,TD50,"rat, strain Fischer 344, females, in feed, site: any site (literature study), lesion: several types, types named in the paper, dosed 104 weeks, study length 107 weeks",22.4 mg/kg/day
same,TD50,"rat, strain Fischer 344, females, in feed, site: liver + multiple organs + spleen, lesion: hepatocellular carcinoma + neoplastic nodule + mononuclear-cell leukemia, dosed 104 weeks, study length 105 weeks",3.34 mg/kg/day
same,TD50,"rat, strain Fischer 344, females, in feed, site: liver, lesion: hepatocellular adenoma + hepatocellular carcinoma + neoplastic nodule, dosed 104 weeks, study length 105 weeks",3.17 mg/kg/day
same,TD50,"rat, strain Fischer 344, females, in feed, site: liver, lesion: hepatocellular adenoma + hepatocellular carcinoma + neoplastic nodule, dosed 104 weeks, study length 107 weeks",16.5 mg/kg/day
same,TD50,"rat, strain Fischer 344, females, in feed, site: liver, lesion: hepatocellular carcinoma + neoplastic nodule, dosed 104 weeks, study length 105 weeks",3.17 mg/kg/day
same,TD50,"rat, strain Fischer 344, females, in feed, site: liver, lesion: neoplastic nodule, dosed 104 weeks, study length 105 weeks",3.22 mg/kg/day
same,TD50,"rat, strain Fischer 344, females, in feed, site: multiple organs + spleen, lesion: mononuclear-cell leukemia, dosed 104 weeks, study length 105 weeks",15.7 mg/kg/day
same,TD50,"rat, strain Fischer 344, females, in feed, site: multiple organs + spleen, lesion: mononuclear-cell leukemia, dosed 104 weeks, study length 107 weeks",5.97 mg/kg/day
same,TD50,"rat, strain Fischer 344, males, in feed, site: adrenal gland + kidney/pelvis + liver, lesion: pheochromocytoma + pheochromocytoma, malignant + transitional-cell papilloma + hepatocellular carcinoma + neoplastic nodule, dosed 104 weeks, study length 104 weeks",0.669 mg/kg/day
same,TD50,"rat, strain Fischer 344, males, in feed, site: adrenal gland, lesion: pheochromocytoma + pheochromocytoma, malignant, dosed 104 weeks, study length 104 weeks",1.43 mg/kg/day
same,TD50,"rat, strain Fischer 344, males, in feed, site: any site (literature study), lesion: several types, types named in the paper, dosed 104 weeks, study length 104 weeks",0.618 mg/kg/day
same,TD50,"rat, strain Fischer 344, males, in feed, site: kidney/pelvis, lesion: transitional-cell papilloma, dosed 104 weeks, study length 104 weeks",13.5 mg/kg/day
same,TD50,"rat, strain Fischer 344, males, in feed, site: liver, lesion: hepatocellular adenoma + hepatocellular carcinoma + neoplastic nodule, dosed 104 weeks, study length 104 weeks",0.825 mg/kg/day
same,TD50,"rat, strain Fischer 344, males, in feed, site: liver, lesion: hepatocellular carcinoma + neoplastic nodule, dosed 104 weeks, study length 104 weeks",0.825 mg/kg/day
same,TD50,"rat, strain Fischer 344, males, in feed, site: liver, lesion: hepatocellular carcinoma, dosed 104 weeks, study length 104 weeks",7.09 mg/kg/day
same,TD50,"rat, strain Fischer 344, males, in feed, site: liver, lesion: neoplastic nodule, dosed 104 weeks, study length 104 weeks",0.87 mg/kg/day
same,TD50,"rat, strain Fischer 344, males, in feed, site: testis, lesion: interstitial-cell tumor, dosed 104 weeks, study length 104 weeks",0.708 mg/kg/day
same,TD50,"rat, strain Fischer 344, males, in feed, site: thyroid gland, lesion: follicular-cell adenoma + follicular-cell carcinoma, dosed 104 weeks, study length 104 weeks",10.4 mg/kg/day
same,TD50,"rat, strain Fischer 344, males, in feed, site: thyroid gland, lesion: follicular-cell adenoma, dosed 104 weeks, study length 104 weeks",12.7 mg/kg/day
CCOC(=O)/C(Cl)=N/Nc1ccccc1,TD50,"mouse, strain B6C3F1, females, in feed, site: pituitary gland, lesion: adenoma, NOS, dosed 103 weeks, study length 104 weeks",20200 mg/kg/day (inactive)
same,TD50,"mouse, strain B6C3F1, females, in feed, site: uterus, lesion: endometrial stromal polyp, dosed 103 weeks, study length 104 weeks",86500 mg/kg/day
same,TD50,"mouse, strain B6C3F1, males, in feed, site: lung, lesion: alveolar/bronchiolar adenoma, dosed 103 weeks, study length 104 weeks",7160 mg/kg/day (inactive)
same,TD50,"rat, strain Fischer 344, females, in feed, site: adrenal gland, lesion: cortical adenoma, dosed 103 weeks, study length 105 weeks",11900 mg/kg/day (inactive)
same,TD50,"rat, strain Fischer 344, females, in feed, site: any site (literature study), lesion: several types, types named in the paper, dosed 103 weeks, study length 105 weeks",29500 mg/kg/day
same,carcinogen call,"rat, strain Fischer 344, males, in feed, site: any site (literature study), lesion: several types, types named in the paper, dosed 103 weeks, study length 105 weeks",negative (inactive)
same,TD50,"rat, strain Fischer 344, males, in feed, site: liver, lesion: hepatocellular adenoma + hepatocellular carcinoma + neoplastic nodule, dosed 103 weeks, study length 105 weeks",516000 mg/kg/day
CN(C)P(=O)(N(C)C)N(C)C,TD50,"rat, strain Charles River CD (Sprague-Dawley), both sexes, inhaled, site: nasal cavity, adenoid, lesion: squamous-cell carcinoma, dosed 53 weeks, study length 104 weeks",0.519 mg/kg/day
same,TD50,"rat, strain Charles River CD (Sprague-Dawley), both sexes, inhaled, site: nasal cavity, adenoid, lesion: squamous-cell carcinoma, dosed 72 weeks, study length 104 weeks",0.608 mg/kg/day
same,TD50,"rat, strain Charles River CD (Sprague-Dawley), both sexes, inhaled, site: nasal cavity, lesion: epidermoid carcinoma, dosed 53 weeks, study length 104 weeks",0.0581 mg/kg/day
same,TD50,"rat, strain Charles River CD (Sprague-Dawley), both sexes, inhaled, site: nasal cavity, lesion: epidermoid carcinoma, dosed 72 weeks, study length 104 weeks",0.0456 mg/kg/day
same,TD50,"rat, strain Charles River CD (Sprague-Dawley), both sexes, inhaled, site: nasal cavity, lesion: malignant tumor, dosed 53 weeks, study length 104 weeks",0.0416 mg/kg/day
same,TD50,"rat, strain Charles River CD (Sprague-Dawley), both sexes, inhaled, site: nasal cavity, lesion: malignant tumor, dosed 72 weeks, study length 104 weeks",0.0387 mg/kg/day
same,TD50,"rat, strain Charles River CD (Sprague-Dawley), both sexes, inhaled, site: nasal cavity, lesion: several types, types named in the paper, dosed 53 weeks, study length 104 weeks",0.0345 mg/kg/day
same,TD50,"rat, strain Charles River CD (Sprague-Dawley), both sexes, inhaled, site: nasal cavity, lesion: several types, types named in the paper, dosed 72 weeks, study length 104 weeks",0.0344 mg/kg/day
ClCOCCOCCl,TD50,"mouse, strain Ha/ICR, females, i.p., site: abdomen, lesion: several types, types named in the paper, dosed 78 weeks, study length 78 weeks",4.62 mg/kg/day
O=P(OC(CCl)CCl)(OC(CCl)CCl)OC(CCl)CCl,TD50,"rat, strain Charles River CD (Sprague-Dawley), females, in feed, site: adrenal gland, lesion: cortical adenoma, dosed 104 weeks, study length 104 weeks",192 mg/kg/day
same,TD50,"rat, strain Charles River CD (Sprague-Dawley), females, in feed, site: kidney, lesion: cortical adenoma, dosed 104 weeks, study length 104 weeks",68.6 mg/kg/day
same,TD50,"rat, strain Charles River CD (Sprague-Dawley), females, in feed, site: liver, lesion: hepatocellular adenoma, dosed 104 weeks, study length 104 weeks",324 mg/kg/day
same,TD50,"rat, strain Charles River CD (Sprague-Dawley), females, in feed, site: liver, lesion: hepatocellular carcinoma, dosed 104 weeks, study length 104 weeks",721 mg/kg/day
same,TD50,"rat, strain Charles River CD (Sprague-Dawley), females, in feed, site: liver, lesion: several types, types named in the paper, dosed 104 weeks, study length 104 weeks",206 mg/kg/day
same,TD50,"rat, strain Charles River CD (Sprague-Dawley), males, in feed, site: kidney, lesion: cortical adenoma, dosed 104 weeks, study length 104 weeks",53.1 mg/kg/day
same,TD50,"rat, strain Charles River CD (Sprague-Dawley), males, in feed, site: liver, lesion: hepatocellular adenoma, dosed 104 weeks, study length 104 weeks",252 mg/kg/day
same,TD50,"rat, strain Charles River CD (Sprague-Dawley), males, in feed, site: liver, lesion: hepatocellular carcinoma, dosed 104 weeks, study length 104 weeks",390 mg/kg/day
same,TD50,"rat, strain Charles River CD (Sprague-Dawley), males, in feed, site: liver, lesion: several types, types named in the paper, dosed 104 weeks, study length 104 weeks",144 mg/kg/day
same,TD50,"rat, strain Charles River CD (Sprague-Dawley), males, in feed, site: testis, lesion: interstitial-cell tumor, dosed 104 weeks, study length 104 weeks",35 mg/kg/day
C1CCNCC1,TD50,"rat, strain MRC, females, in drinking water, site: any site (literature study), lesion: several types, types named in the paper, dosed 75 weeks, study length 104 weeks",63.3 mg/kg/day
CC(=O)N(C(C)=O)c1cccc2c1Cc1ccccc1-2,TD50,"rat, strain Buffalo, females, in feed, site: ear duct, lesion: squamous-cell carcinoma, dosed 53 weeks, study length 93 weeks",61.2 mg/kg/day
same,TD50,"rat, strain Buffalo, females, in feed, site: liver, lesion: hemangioma, dosed 53 weeks, study length 93 weeks",61.2 mg/kg/day
same,TD50,"rat, strain Buffalo, females, in feed, site: mammary gland, lesion: adenocarcinoma, dosed 53 weeks, study length 93 weeks",19 mg/kg/day
same,TD50,"rat, strain Buffalo, females, in feed, site: pituitary gland, lesion: adenoma, dosed 53 weeks, study length 93 weeks",8.63 mg/kg/day
Nc1nc(N)nc(-c2ccc([N+](=O)[O-])o2)n1,TD50,"rat, strain Sprague-Dawley, females, in feed, site: any site (literature study), lesion: several types, types named in the paper, dosed 46 weeks, study length 66 weeks",1.71 mg/kg/day
same,TD50,"rat, strain Sprague-Dawley, females, in feed, site: mammary gland, lesion: adenocarcinoma, dosed 46 weeks, study length 66 weeks",4.49 mg/kg/day
same,TD50,"rat, strain Sprague-Dawley, females, in feed, site: mammary gland, lesion: several types, types named in the paper, dosed 46 weeks, study length 66 weeks",1.71 mg/kg/day
"CC[C@H](C)[C@@H]1NC(=O)[C@@H](NC(=O)c2c3nc4c(C(=O)N[C@@H]5C(=O)N[C@@H](C(C)C)C(=O)N6CCC[C@H]6C(=O)N(C)CC(=O)N(C)[C@@H](C(C)C)C(=O)O[C@@H]5C)ccc(C)c4oc-3c(C)c(=O)c2N)[C@@H](C)OC(=O)[C@H](C(C)C)N(C)C(=O)CN(C)C(=O)[C@@H]2CCCN2C1=O (I: TIP[Sar][NMeV] / II: TVP[Sar][NMeV]; ester I:1-I:C, II:1-II:C; linker I:N-II:N via Actinocin(1to9))",TD50,"rat, strain BR 46, males, i.v., site: any site (literature study), lesion: benign tumor, dosed 52 weeks, study length 104 weeks",2.23 mg/kg/day
same,TD50,"rat, strain BR 46, males, i.v., site: any site (literature study), lesion: malignant tumor, dosed 52 weeks, study length 104 weeks",10.8 mg/kg/day
same,TD50,"rat, strain BR 46, males, i.v., site: any site (literature study), lesion: several types, types named in the paper, dosed 52 weeks, study length 104 weeks",1.68 mg/kg/day
OCC(CO)N[C@H]1C[C@](O)(CO)[C@@H](O)[C@H](O)[C@H]1O,carcinogen call,"mouse, strain Charles River CD1, females, by gavage, site: liver, lesion: hepatocellular adenoma, dosed 101 weeks, study length 101 weeks",negative (inactive)
same,carcinogen call,"mouse, strain Charles River CD1, females, by gavage, site: lung, lesion: alveolar/bronchiolar adenoma, dosed 101 weeks, study length 101 weeks",negative (inactive)
same,carcinogen call,"mouse, strain Charles River CD1, males, by gavage, site: liver, lesion: hepatocellular adenoma, dosed 83 weeks, study length 83 weeks",negative (inactive)
same,carcinogen call,"mouse, strain Charles River CD1, males, by gavage, site: liver, lesion: hepatocellular carcinoma, dosed 83 weeks, study length 83 weeks",negative (inactive)
same,TD50,"mouse, strain Charles River CD1, males, by gavage, site: lung, lesion: alveolar/bronchiolar adenoma, dosed 83 weeks, study length 83 weeks",1370 mg/kg/day (inactive)
same,carcinogen call,"rat, strain F344/DuCrj, females, by gavage, site: liver, lesion: one or several types, types not named, dosed 104 weeks, study length 104 weeks",negative (inactive)
same,TD50,"rat, strain F344/DuCrj, females, by gavage, site: mammary gland, lesion: fibroadenoma, dosed 104 weeks, study length 104 weeks",119 mg/kg/day (inactive)
same,TD50,"rat, strain F344/DuCrj, males, by gavage, site: liver, lesion: hepatocellular adenoma, dosed 104 weeks, study length 104 weeks",575 mg/kg/day (inactive)
same,TD50,"rat, strain F344/DuCrj, males, by gavage, site: liver, lesion: hepatocellular carcinoma, dosed 104 weeks, study length 104 weeks",1740 mg/kg/day (inactive)
same,TD50,"rat, strain F344/DuCrj, males, by gavage, site: testis, lesion: interstitial-cell tumor, dosed 104 weeks, study length 104 weeks",9.27 mg/kg/day (inactive)
